Reference: PubChem BioAssay AID588356 (Sanford-Burnham Center for Chemical Genomics, 2011)
Calls of active or inactive are those of the source.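 Rule for the calls: active = mean IC50 below 20 µM; inactive = the rest.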

Target: Hexokinase-1 (Homo sapiens) (UniProt P19367)
Experiment: hexokinase 1 activity inhibitors, potency – biochemical, set 2, resazurin fluorescence coupled readout, selectivity assay for HKDC1 inhibitor project, SAR follow-up (AID 588356)
Details: HK1 enzyme, G6PDH/diaphorase resazurin fluorescence

Chain of Hexokinase-1 (Homo sapiens) (P19367 whole entry, looked up): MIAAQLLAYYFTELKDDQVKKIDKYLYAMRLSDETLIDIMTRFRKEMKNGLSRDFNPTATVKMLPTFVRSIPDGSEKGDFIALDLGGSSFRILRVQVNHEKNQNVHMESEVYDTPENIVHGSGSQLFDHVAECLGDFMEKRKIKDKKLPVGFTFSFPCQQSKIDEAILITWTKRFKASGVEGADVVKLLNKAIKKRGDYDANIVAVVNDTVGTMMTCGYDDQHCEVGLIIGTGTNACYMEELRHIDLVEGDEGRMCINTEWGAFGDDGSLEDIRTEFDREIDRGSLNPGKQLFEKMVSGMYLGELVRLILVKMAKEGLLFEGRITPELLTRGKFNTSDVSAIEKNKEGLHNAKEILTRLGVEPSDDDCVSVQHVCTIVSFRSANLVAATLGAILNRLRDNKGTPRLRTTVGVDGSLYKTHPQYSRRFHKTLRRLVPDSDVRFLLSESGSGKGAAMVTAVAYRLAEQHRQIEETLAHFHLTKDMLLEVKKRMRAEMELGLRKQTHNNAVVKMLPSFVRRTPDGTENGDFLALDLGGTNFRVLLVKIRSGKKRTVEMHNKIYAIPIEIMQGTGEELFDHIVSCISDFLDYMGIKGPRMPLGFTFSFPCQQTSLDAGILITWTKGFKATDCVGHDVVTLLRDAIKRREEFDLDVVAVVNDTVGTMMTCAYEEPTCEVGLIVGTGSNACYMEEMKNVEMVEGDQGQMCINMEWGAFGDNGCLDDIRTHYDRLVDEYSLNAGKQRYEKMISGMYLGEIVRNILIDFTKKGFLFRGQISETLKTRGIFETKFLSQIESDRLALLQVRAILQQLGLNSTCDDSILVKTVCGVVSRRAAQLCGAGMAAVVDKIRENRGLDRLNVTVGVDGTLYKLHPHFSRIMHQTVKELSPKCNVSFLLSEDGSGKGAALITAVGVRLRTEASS

IC50: inactive
Compound: COc1cc2c(cc1OC)-c1cc(N3CCc4ccccc4C3)nc(=O)n1CC2
